Results as given in article PMC6158327, “Negative Allosteric Modulators of mGlu7 Receptor as Putative Antipsychotic Drugs” (Frontiers in Molecular Neuroscience, 2018).

Test system: MK-801-induced disruption in spatial delayed alternation
Assay: Spatial delayed alternation test (T-maze)
Format: in vivo, Wistar rats
Conditions: 10 mg/kg, 30 min prior to MK-801 (0.1 mg/kg), rats
Procedure: The spatial delayed alternation test was performed using a wooden T-maze, according to [Sławińska et al., 2013] and [Wierońska et al., 2015b].
During the adaptation phase, lasting 3 days, the animals were allowed to freely explore the maze for 10 min. For the next 2 days, rats were confined to either of the two end-arms and allowed to drink a 10 % sucrose solution there for 10 min twice daily. On the following day, a 2-week training phase was started. The animals performed one training session per day, which consisted of one forced trial (i.e., one of the end-arms was closed) followed by ten free choice trials. During the free choice trial the animal was placed in the starting arm and after the guillotine door was raised, it was allowed to choose to enter one of the end-arms. After the response, the rat was placed back to the starting arm, where it stayed for 10 s. If the chosen end-arm was the opposite to the previously visited one, a correct response was scored, and the animal was closed in the compartment where it was allowed to drink the sucrose solution for 5 s. After an incorrect response, the animal was gently returned to the starting arm. The training phase was carried out until the animals scored 7 correct responses in a training session in 2 consecutive days.
The test was started 30 min after the MK-801 injection.

**Q.** COc1ccc(-c2cc3onc(-c4ccncc4)c3c(=O)n2C)cc1 [MMPIP, 6-(4-Methoxyphenyl)-5-methyl-3-(4-pyridinyl)-isoxazolo(4,5-c)pyridin-4(5H)-one] was tested. Which “Effect on MK-801-induced reduction of choice accuracy (spatial delayed alternation)” value did it give?
**A.** Its value is “rescued the MK-801–induced cognitive impairments”.
